Assay results from US12276667B2, “Isolation and characterization of the nuclear proteome” (Altius Institute for Biomedical Sciences, priority 2018, dated 2025).

Tested on: IKZF1
Assay: Nuclear proteome by mass spectrometry (DIA) after cell treatment with thalidomide
Type: cell-based
Conditions: cells treated with thalidomide; FIG. 14
Procedure: First, cells of interest are isolated. This is done by harvesting, homogenizing, washing, and then pelleting the cells of interest. The pellet is then resuspended in a buffer A not comprising polycations (e.g., no spermidine or spermine). NP40 detergent solution is then added to isolate nuclei and cells are spun and are pelleted. Optionally, prior to salt extraction, the pellet is treated with MNase at 37° C. for 5 minutes and is quenched with EDTA. The pellet is resuspended in buffer A and […] NaCl, and then is incubated at 4° C. for 30 minutes. The insoluble chromatin is pelleted for later analysis. The supernatant is used for further analysis.
400 ul of 01.% PPS is added to the nuclear pellet of EXAMPLE 1, which is then sonicated at a setting output of 5 for 30 seconds and a protein concentration is determined using A280 reading. The sample is then boiled at 99 C for 5 minutes, is allowed to cool at room temperature, and is then briefly spun down. DTT is added for a final concentration of 5 mM, and is incubated at 60° C. for 30 minutes. Next, IAA is added for a final concentration of 15 mM, and is incubated at room temperature in the dark for 30 minutes. […]
Data were acquired on a ThermoFisher QExactive-HF instrument operating in DIA mode. […] Peptide quantification was performed using EncyclopeDIA software. […]

O=C1CCC(N2C(=O)c3ccccc3C2=O)C(=O)N1 (stereo not shown) [thalidomide]
pharmacological degradation of IKZF1 after cell treatment: degraded
